# Patent publication US7166598B2, “Piperazine derivatives” (Astellas Pharma Inc., priority 1998, dated 2007)
# Tested on: Emesis in the dog
# Assay: Emesis in the dog (apomorphine-induced retching and vomiting)
# Format: in vivo
# Details: dose of 0.32 mg/kg i.v., 5 min before subcutaneous apomorphine (0.1 mg/0.5 ml/kg), observed for 60 min
# Method: Individually housed adult female dogs (8 to 15 kg) were given an i.v. injection of a solution containing a test compound. 5 Min later the emetic responses (retching and vomiting) were induced by administration of subcutaneous apomorphine (0.1 mg/0.5 ml/kg) and observed for the next 60 min. The timing and number of retches and vomits observed were recorded for each animal. An individual animal was tested with at least 10 days between experiments.
row,SMILES,inhibition rate of emesis in the dog [%]
1,"Cc1ccc(CC2CN(CCN3C[C@@H](C)O[C@@H](C)C3)CCN2C(=O)c2cc(C(F)(F)F)cc(C(F)(F)F)c2)cc1O.Cl.Cl (relative stereo) [Example 4-(1), 1-[3,5-Bis(trifluoromethyl)benzoyl]-4-[2-(cis-2,6-dimethylmorpholino)ethyl]-2-(3-hydroxy-4-methylbenzyl)piperazine dihydrochloride]",100

# Tested on: not given
# Assay: not given
# Details: not given
row,SMILES,melting point [°C]
1,C[C@@H]1CN(CCN2CCN(C(=O)c3cc(-n4cccc4)cc(C(F)(F)F)c3)[C@H](Cc3ccc(Cl)cc3)C2)C[C@H](C)O1.Cl.Cl,152.7 to 157.9
2,COc1cc(C(=O)N2CCN(Cc3cccnc3)C[C@H]2Cc2c[nH]c3ccccc23)cc(C(F)(F)F)c1.Cl.Cl,190 to 200
3,"Cc1ccc(CC2CN(CCN3C[C@@H](C)O[C@@H](C)C3)CCN2C(=O)c2cc(C(F)(F)F)cc(C(F)(F)F)c2)cc1O.Cl.Cl (relative stereo) [Example 4-(1), 1-[3,5-Bis(trifluoromethyl)benzoyl]-4-[2-(cis-2,6-dimethylmorpholino)ethyl]-2-(3-hydroxy-4-methylbenzyl)piperazine dihydrochloride]",188 to 200
4,"COC[C@@H]1CN(CCN2CCN(C(=O)c3cc(C(F)(F)F)cc(C(F)(F)F)c3)C(Cc3ccc(C)c(O)c3)C2)[C@@H](C)CO1.Cl.Cl (stereo partly drawn) [4-(2), 1-[3,5-Bis(trifluoromethyl)benzoyl]-2-(3-hydroxy-4-methylbenzyl)-4-[2-[(2S,5S)-2-methoxymethyl-5-methylmorpholino]ethyl]piperazine dihydrochloride]",214 to 218
5,COC[C@@H]1CN(CCN2CCN(C(=O)c3cc(C(F)(F)F)cc(C(F)(F)F)c3)[C@H](Cc3ccc(C)c(O)c3)C2)CCO1.Cl.Cl [Example 5-(1)],207 to 210
6,COC[C@@H]1CN(CCN2CCN(C(=O)c3cc(C(F)(F)F)cc(C(F)(F)F)c3)[C@H](Cc3ccc(C)c(O)c3)C2)CCO1.Cl.Cl [Example 13],206 to 224.5

# Second part, the molecule after the results:
row,melting point [°C],SMILES
1,245 to 265,Cc1ccc(C[C@@H]2CN(CCN3CCc4sccc4C3)CCN2C(=O)c2cc(C(F)(F)F)cc(C(F)(F)F)c2)cc1O.Cl.Cl
2,180 to 190,"Cc1ccc(CC2CN(CC#Cc3cccnc3)CCN2C(=O)c2cc(C(F)(F)F)cc(C(F)(F)F)c2)cc1O.Cl.Cl (centres unmarked) [Example 7, 1-[3,5-bis(trifluoromethyl)benzoyl]-2-(3-hydroxy-4-methylbenzyl)-4-[3-(3-pyridyl)-2-propynyl]piperazine dihydrochloride]"
3,60 to 70,"Cc1ccc(CC2CN(CCCc3cccnc3)CCN2C(=O)c2cc(C(F)(F)F)cc(C(F)(F)F)c2)cc1O.Cl.Cl (centres unmarked) [Example 8, 1-[3,5-bis(trifluoromethyl)benzoyl]-2-(3-hydroxy-4-methylbenzyl)-4-[3-(3-pyridyl)propyl]piperazine dihydrochloride]"
4,142 to 143,"O=C(c1cc(C(F)(F)F)cc(C(F)(F)F)c1)N1CCN(CC#Cc2cccnc2)C[C@H]1Cc1ccc(C(F)(F)F)cc1 [Example 9-(53), (2R)-1-[3,5-Bis(trifluoromethyl)benzoyl]-4-[3-(3-pyridyl)-2-propynyl]-2-[4-(trifluoromethyl)benzyl]-piperazine]"
